# Laboratory results taken from PMC7002685, “Inhibition of vascular calcification by inositol phosphates derivatized with ethylene glycol oligomers” (Nature Communications, 2020).
# Values joined by “and” are separate entries in the source; they are usually repeats but may differ in a detail not shown here. Equal entries are not always repeated. Where two headings read alike, the source gives them in different places.
# Key:
# CPP2 = test: Competitive 18F-NaF binding assay on CPPs; set-up: species or system human; settings: for IC50: CPP2 20 µg Ca/mL, 18F-NaF 1 nM, 1 h RT, read-out: IC50 (reduction of 18F binding to CPP)
# Method: A ^18F-NaF-based competitive binding assay was developed to indirectly assess the inhibitor affinity (IC50) to CPPs. The uptake mechanism of ^18F-NaF, a marker of micro-calcification activity by chemisorption onto hydroxyapatite crystals, is contingent on the rapid exchange of hydroxyl (OH^−) groups present on the hydroxyapatite surface (Ca5(PO4)3(OH)) by ^18F^− to form fluoroapatite (Ca5(PO4)3^18F)[34],[54].
# Triplicate aliquots of CPP2s (20 µg Ca/mL) in 100 μL assay buffer (100 mM HBS, pH 7.4 (RT)) were incubated for 1 h at RT in the presence of increasing concentrations of compounds in 50 μL Milli-Q water and ^18F-NaF (1 nM) in 50 μL assay buffer, resulting in a total incubation volume of 200 μL (^18F-NaF was prepared using a FASTlab synthesizer (GE Healthcare, Little Chalfont, UK) and commercially available ^18F-NaF cassettes (GE Healthcare)). Maximum radiotracer binding was determined by incubating CPP2s with ^18F-NaF (1 nM) only. The reaction was terminated by rapid filtration through a SOLAμ™ SPE plate (HRP 2 mg/mL 96-well plate, 22 μm; Thermo Fisher Scientific). SPE individual column matrices were washed twice rapidly in assay buffer and radioactivity on the filters determined by an automatic gamma counter (Wizard2 Gamma Counter, Perkin Elmer, Waltham, MA, USA). […] IC50 is the concentration of […] that gives a response half way between the bottom and top parts of the curve. ^18F-NaF micro-PET/computed tomography (micro-PET/CT) was employed for ex vivo analysis of (OEG2)2-IP4’s engagement to target calcified human tissue explants, as described previously. […] Following incubations, samples were washed twice in 0.1 M PBS (1 min per wash) and mounted on a Petri dish for micro-PET/CT imaging (nanoPET/CT, Mediso, Budapest, Hungary). In total, seven samples from the femoral arteries of three patients with ischemic peripheral disease and three samples from native aortic valves of three patients undergoing valve replacement surgery were used. All samples were collected at the time of surgery and stored in 4% paraformaldehyde at RT until further use. All patients gave their written, informed consent. All procedures had local ethical approval (06/S0703/110, 12/WS/0227, 09/S0703/118, and 12/NW/0036). All studies were approved by East and West Scotland Research Ethics Committees, and all experiments were conducted according to the principles expressed in the Declaration of Helsinki.
# [1] = Serum calcification propensity assay after 4.5 h incubation in enzymatically active human serum; settings: Fig. 2e; for ΔT50 after 4.5 h vs 0 h incubation in enzymatically active human serum: compound at c350 concentration, 37 °C, individual donors
# [2] = test system: transformation of CPP1 to CPP2 in pooled human serum; test: In vitro serum calcification propensity (T50) screening assay; assay type: biochemical; set-up: key to T50: T50 in minutes (time to 50% CPP phase transition); settings: for activity/unit mass: mean c350 x mw (Na salt); for concentration upon which a T50 of 350 min is reached (c350), mean: mean of n experiments
# [3] = 3 µM, individual experiments, Fig. 2a
# [4] = 10 µM, individual experiments, Fig. 2a
compound,measurement,setting,value
"COCCOCCO[C@@H]1[C@@H](OP(=O)(O)O)[C@H](OCCOCCOC)[C@@H](OP(=O)(O)O)[C@@H](OP(=O)(O)O)[C@H]1OP(=O)(O)O [(OEG2)2-IP4, 4,6-Di-O-(methoxy-diethyleneglycol)-myo-inositol-1,2,3,5-tetrakis(phosphate)]",IC50,CPP2,0.81 µM
same,IC90,"CPP2; as assessed in Fig. 2c, read-out: IC90 (concentration inhibiting 90% 18F-NaF binding)",8.6 µM
same,IC90,"CPP2; as used for tissue explants, read-out: IC90",8.55 µM
same,18F-NaF percentage binding to CPP2,"CPP2; concentration 0.75 (unit not given), listed as INS-3001",105.464% and 94.9958% and 112.003%
same,18F-NaF percentage binding to CPP2,"CPP2; concentration 2.5 (unit not given), listed as INS-3001",107.219% and 104.697% and 115.819%
same,18F-NaF percentage binding to CPP2,"CPP2; concentration 7.5 (unit not given), listed as INS-3001",94.1661% and 101.068% and 121.959%
same,18F-NaF percentage binding to CPP2,"CPP2; concentration 25 (unit not given), listed as INS-3001",108.675% and 100.128% and 123.491%
same,18F-NaF percentage binding to CPP2,"CPP2; concentration 75 (unit not given), listed as INS-3001",113.007% and 98.9202% and 111.871%
same,18F-NaF percentage binding to CPP2,"CPP2; concentration 250 (unit not given), listed as INS-3001",85.5215% and 95.9196% and 111.875%
same,18F-NaF percentage binding to CPP2,"CPP2; concentration 750 (unit not given), listed as INS-3001",70.0481% and 89.1189% and 102.542%
same,18F-NaF percentage binding to CPP2,"CPP2; concentration 1750 (unit not given), listed as INS-3001",31.7703% and 41.2562% and 38.4419%
same,18F-NaF percentage binding to CPP2,"CPP2; concentration 7500 (unit not given), listed as INS-3001",12.1628% and 10.8683% and 17.508%
same,18F-NaF percentage binding to CPP2,"CPP2; concentration 25000 (unit not given), listed as INS-3001",16.4031% and 18.0245% and 30.0027%
same,18F-NaF percentage binding to CPP2,"CPP2; concentration 75000 (unit not given), listed as INS-3001",21.5957% and 22.2508% and 37.2218%
same,18F-NaF percentage binding to CPP2,"CPP2; concentration 250000 (unit not given), listed as INS-3001",17.9597% and 19.9827% and 35.4457%
same,18F-NaF percentage binding to CPP2,"CPP2; concentration 750000 (unit not given), replicates Fig. 2c, listed as INS-3001",28.6563% and 25.7698% and 36.7738%
same,ΔT50 after 4.5 h vs 0 h incubation in enzymatically active human serum,[1],-10 min and 0 min and 51 min and 10 min
same,T50,"[2]; 0.3 µM, individual experiments, Fig. 2a",225.667 min and 200.6 min and 198.8 min
same,T50,"[2]; 1 µM, individual experiments, Fig. 2a",245.5 min and 222.6 min and 227.433 min
same,T50,[2]; [3],295.5 min and 257.733 min and 269.633 min
same,T50,[2]; [4],669.833 min and 505.133 min and 608.55 min
same,T50,"[2]; concentration 0.3 μM, one value per experiment",225.667 and 200.6 and 198.8
same,T50,"[2]; concentration 1 μM, one value per experiment",245.5 and 222.6 and 227.433
same,T50,"[2]; concentration 3 μM, one value per experiment",295.5 and 257.733 and 269.633
same,T50,"[2]; concentration 10 μM, one value per experiment",669.833 and 505.133 and 608.55
same,"stronger inhibition than (OEG11)2-IP4, activity by unit mass",[2]; from c350 in mg/L,32%
same,activity/unit mass,[2],4.30 mg/L
same,"concentration upon which a T50 of 350 min is reached (c350), mean",[2],4.9 µM
same,"concentration upon which a T50 of 350 min is reached (c350), single experiment",[2]; one value per experiment (lab journal reference E05-E40),4.3 µM and 5.9 µM and 5.0 µM and 3.6 µM and 5.4 µM
same,Concentration at T50 = 350 min mean ± s.d. (n) (c350),"[2]; pooled human serum, 10 mM calcium, 6 mM phosphate, 37 °C",4.9 ± 0.8 µM and 4.3 ± 0.7 mg/L
"O=P(O)(O)O[C@H]1[C@H](OP(=O)(O)O)[C@@H](OP(=O)(O)O)[C@H](OP(=O)(O)O)[C@@H](OP(=O)(O)O)[C@H]1OP(=O)(O)O [IP6, myo-Inositol hexakisphosphate]",IC50,CPP2,3.96 µM
same,18F-NaF percentage binding to CPP2,CPP2; concentration 0.75 (unit not given),94.1339% and 121.154% and 102.128%
same,18F-NaF percentage binding to CPP2,CPP2; concentration 2.5 (unit not given),93.0288% and 114.326% and 101.486%
same,18F-NaF percentage binding to CPP2,CPP2; concentration 7.5 (unit not given),92.4582% and 110.79% and 97.129%
same,18F-NaF percentage binding to CPP2,CPP2; concentration 25 (unit not given),95.6995% and 114.564% and 112.333%
same,18F-NaF percentage binding to CPP2,CPP2; concentration 75 (unit not given),85.0945% and 107.18% and 113.212%
same,18F-NaF percentage binding to CPP2,CPP2; concentration 250 (unit not given),87.0585% and 108.409% and 103.034%
same,18F-NaF percentage binding to CPP2,CPP2; concentration 750 (unit not given),87.2718% and 107.684% and 96.5293%
same,18F-NaF percentage binding to CPP2,CPP2; concentration 1750 (unit not given),100.593% and 62.29% and 66.5713%
same,18F-NaF percentage binding to CPP2,CPP2; concentration 2500 (unit not given),85.021% and 85.5383% and 72.51%
same,18F-NaF percentage binding to CPP2,CPP2; concentration 7500 (unit not given),76.4111% and 59.8209% and 66.7993%
same,18F-NaF percentage binding to CPP2,CPP2; concentration 25000 (unit not given),66.3738% and 68.2115% and 51.6692%
same,18F-NaF percentage binding to CPP2,CPP2; concentration 75000 (unit not given),48.1457% and 55.4993% and 51.2901%
same,18F-NaF percentage binding to CPP2,CPP2; concentration 250000 (unit not given),52.9543% and 43.7782% and 27.6001%
same,18F-NaF percentage binding to CPP2,"CPP2; concentration 750000 (unit not given), replicates Fig. 2c",50.6666% and 38.054% and 33.4917%
same,ΔT50 after 4.5 h vs 0 h incubation in enzymatically active human serum,[1],-69 min and -77 min and -76 min and -70 min
same,decrease of T50 from baseline after 4.5-h incubation in enzymatically active serum,[1]; mean,73 min
same,T50,[2]; [3],234.667 min and 274 min and 233.967 min and 253.933 min and 243.267 min and 241.767 min and 246.2 min and 235.9 min and 228.633 min and 203.267 min and 288.2 min and 222.867 min and 230.267 min and 213.667 min and 216.7 min and 265.633 min and 255.267 min
same,T50,"[2]; 4.1 µM, individual experiments, Fig. 2a",217.4 min and 239.4 min and 277.7 min and 241.067 min
same,T50,"[2]; 5 µM, individual experiments, Fig. 2a",249.8 min and 203.1 min and 210 min
same,T50,"[2]; 8.2 µM, individual experiments, Fig. 2a",256.2 min
same,T50,[2]; [4],257.5 min and 310.933 min and 271.067 min and 277.3 min and 252.767 min and 292.233 min and 259.167 min and 287.2 min and 285.433 min and 258.3 min and 249.2 min and 255.267 min and 337.4 min and 269.2 min and 241.433 min and 220.9 min and 227.45 min and 265.233 min and 247.333 min and 278 min and 268.867 min
same,T50,"[2]; 15 µM, individual experiments, Fig. 2a",257.433 min and 252.1 min and 309.067 min and 247.867 min
same,T50,"[2]; 20 µM, individual experiments, Fig. 2a",287.15 min and 265.7 min and 269.8 min
same,T50,"[2]; 30 µM, individual experiments, Fig. 2a",345.45 min and 406.133 min and 372.8 min and 351.75 min and 343.7 min and 344.2 min and 259.35 min and 335.5 min and 347.9 min and 378.6 min and 321.233 min and 338 min and 297.667 min and 289.1 min and 328.133 min and 313.633 min and 374.867 min and 311.7 min and 330.9 min and 290.033 min and 322.15 min and 364.5 min and 339.867 min
same,T50,"[2]; 50 µM, individual experiments, Fig. 2a",415 min and 521.55 min and 441.5 min and 442 min and 442.167 min and 430.55 min and 469.15 min and 469.7 min and 444.5 min and 341.15 min and 548.25 min and 437.6 min and 408.433 min and 339.067 min and 334.933 min and 396.5 min and 364.133 min and 373.7 min and 353.2 min and 360.8 min and 372.45 min and 446.2 min and 371.033 min and 410.7 min
same,activity/unit mass,[2],30.85 mg/L
same,"concentration upon which a T50 of 350 min is reached (c350), mean",[2],35.0 µM
